{
  "source": "patent US7754249B2",
  "about": "“Haircare compositions and methods” (The Boots Company PLC, priority 2004, dated 2010)",
  "system": "interleukin-2 (IL-2) production",
  "assay": "IL-2 inhibition assay in pha-stimulated human lymphocytes",
  "type": "cell-based",
  "conditions": "preliminary trial; cultured human lymphocytes stimulated with pha, with or without CsA",
  "protocol": "The potential for the extracts to reduce/prevent hair loss or promote hair growth were assessed by an IL-2 inhibition assay. IL-2 has been associated with inhibition of hair growth and promotion of hair loss.\nHuman lymphocytes were extracted from blood and cultured using standard techniques. A preliminary trial was carried out to ensure that test cells were able to produce IL-2 when stimulated with phytohaemogluttinin (pha), a known IL-2 promoter, and also for this stimulation to be inhibited using Cyclosporin A (CsA) which is a known inhibitor of IL-2 production.\nFollowing this confirmation of the capability of the cells to produce IL-2, studies using the extracts were carried out using the same methodology, but with the extracts replacing CsA. Results are shown in Table 2 and expressed as % IL-2 inhibition compared to control.\nControl=50% denatured ethanol, 50% propylene glycol.\nAll materials were used at 1 in 1000 dilution.",
  "data": [
    {"substance": "phytohaemogluttinin [pha]", "values": [
      {"measurement": "IL-2", "value": ">1000", "unit": "pg/mL"}
    ]}
  ]
}
